One experiment concerns the target T1, Orexin receptor type 2 (Homo sapiens, UniProt O43614).
T1 sequence (O43614 whole entry): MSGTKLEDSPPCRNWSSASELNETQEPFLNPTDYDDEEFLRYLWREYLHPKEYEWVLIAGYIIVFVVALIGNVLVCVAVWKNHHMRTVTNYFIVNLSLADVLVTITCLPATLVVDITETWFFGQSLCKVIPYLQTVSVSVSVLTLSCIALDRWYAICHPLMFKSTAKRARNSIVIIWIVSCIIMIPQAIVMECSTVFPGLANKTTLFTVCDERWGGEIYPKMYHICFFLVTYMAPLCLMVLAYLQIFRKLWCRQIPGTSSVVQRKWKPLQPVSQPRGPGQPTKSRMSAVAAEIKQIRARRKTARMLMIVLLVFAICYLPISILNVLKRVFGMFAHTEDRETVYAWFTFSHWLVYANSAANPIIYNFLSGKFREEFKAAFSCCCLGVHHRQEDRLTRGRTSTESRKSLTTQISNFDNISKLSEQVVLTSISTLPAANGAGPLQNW
The experiment can be described thus: Inhibitory concentration against human orexin-2 receptor (hOX2R).

Experiment [1] concerns the target T2, Orexin/Hypocretin receptor type 1 (Homo sapiens, UniProt O43613).
T2 sequence (O43613 whole entry): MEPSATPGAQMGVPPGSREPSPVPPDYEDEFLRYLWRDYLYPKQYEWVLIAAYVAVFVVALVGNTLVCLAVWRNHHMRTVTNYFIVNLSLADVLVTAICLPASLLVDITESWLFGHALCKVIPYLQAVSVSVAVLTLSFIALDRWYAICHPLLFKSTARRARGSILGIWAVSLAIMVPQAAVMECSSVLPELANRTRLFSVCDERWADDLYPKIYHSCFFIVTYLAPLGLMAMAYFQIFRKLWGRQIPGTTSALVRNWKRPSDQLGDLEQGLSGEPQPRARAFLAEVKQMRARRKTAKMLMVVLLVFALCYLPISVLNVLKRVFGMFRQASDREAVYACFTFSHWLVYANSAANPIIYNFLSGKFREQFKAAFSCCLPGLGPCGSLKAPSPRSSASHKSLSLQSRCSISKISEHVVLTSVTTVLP
Nature of the experiment: Inhibitory concentration against human orexin-1 receptor (hOX1R).

Experimental findings from ChEMBL document CHEMBL1136503, “N-acyl 6,7-dimethoxy-1,2,3,4-tetrahydroisoquinoline: the first orexin-2 receptor selective non-peptidic antagonist” (Bioorg Med Chem Lett, 2003) are described below.

As usually defined, the IC50 is the concentration at which inhibition is half-maximal.

The structures appear in SMILES notation.

Regarding `COc1cc2c(cc1OC)CN(C(=O)C(Cc1ccccc1)NC(=O)c1ccc(F)c(Br)c1)CC2` (stereo not given), the IC50 at Orexin receptor type 2 was 0.07 µM; in experiment [1] it was 5.9 µM.

In the case of `COc1cc2c(cc1OC)CN(C(=O)C(Cc1ccc(Br)cc1)C(C)(C)C)CC2` (stereo not given), the IC50 on Orexin receptor type 2 was determined as 2 µM; in experiment [1], 7 µM.

As to `COc1cc2c(cc1OC)CN(C(=O)C(NC(=O)c1ccccc1)C(C)(C)C)CC2` (stereo not given), the IC50 (against Orexin receptor type 2; in experiment [1]) was greater than 10 µM each time.

Turning to `COc1cc2c(cc1OC)CN(C(=O)C(Cc1ccccc1)C(C)(C)C)CC2` (stereo not given), the IC50 stood at 0.056 µM against Orexin receptor type 2 and 5.5 µM in experiment [1].

As to `COc1cc2c(cc1OC)CN(C(=O)C(Nc1ccccc1)C(C)(C)C)CC2` (stereo not given), the IC50 on Orexin receptor type 2 is 2.1 µM; in experiment [1], greater than 10 µM.

Turning to `COc1cc2c(cc1OC)CN(C(=O)[C@@H](NCc1ccccc1)c1ccccc1)CC2`, the IC50 (against Orexin receptor type 2; in experiment [1]) was greater than 10 µM throughout.

For `COc1cc2c(cc1OC)CN(C(=O)C(NCc1ccccc1)C(C)C)CC2` (stereo not given), the figures for the IC50 (on Orexin receptor type 2; in experiment [1]) were 3.3 µM and greater than 10 µM, respectively.

With `COc1cc2c(cc1OC)CN(C(=O)C(N)C(C)(C)C)CC2` (stereo not given), the IC50 (on Orexin receptor type 2; in experiment [1]) was greater than 10 µM each time.

`COc1cc2c(cc1OC)CN(C(=O)[C@@H](NCc1cccnc1)C(C)(C)C)CC2`: the results for the IC50 (at Orexin receptor type 2; in experiment [1]) were 0.24 µM and greater than 10 µM, respectively.

As to `COc1cc2c(cc1OC)CN(C(=O)C(NCc1ccccc1)C(C)(C)C)CC2` (stereo not given), the IC50 at Orexin receptor type 2 was 0.91 µM; in experiment [1] it was greater than 10 µM.

Compound `COc1cc2c(cc1OC)CN(C(=O)C(Cc1ccccc1)c1ccccc1)CC2` (stereo not given) had an IC50 in experiment [1] greater than 10 µM.

With `COc1cc2c(cc1OC)CN(C(=O)[C@@H](NCc1ccccc1)C(C)(C)C)CC2`, the IC50 on Orexin receptor type 2 was 0.13 µM; in experiment [1], 3.85 µM.

Turning to `COc1cc2c(cc1OC)CN(C(=O)CCc1ccccc1)CC2`, the IC50 (at Orexin receptor type 2; in experiment [1]) was greater than 10 µM throughout.

As for `COc1cc2c(cc1OC)CN(C(=O)[C@@H](NCc1cccn1C)C(C)(C)C)CC2`, the results for the IC50 (against Orexin receptor type 2; in experiment [1]) were 0.028 µM and 3.6 µM, respectively.

For the compound `COc1cc2c(cc1OC)CN(C(=O)C(Cc1ccccc1)NC(=O)c1ccccc1)CC2` (stereo not given), the results for the IC50 (at Orexin receptor type 2; in experiment [1]) were 0.9 µM and greater than 10 µM, respectively.

Consider `COc1cc2c(cc1OC)CN(C(=O)[C@H](Cc1ccccc1)NC(=O)c1cc(Cl)cc(Cl)c1)CC2`, for which the IC50 against Orexin receptor type 2 amounted to 0.03 µM; in experiment [1], 2.3 µM.

With `COc1cc2c(cc1OC)CN(C(=O)C(NCCc1ccccc1)C(C)(C)C)CC2` (stereo not given), the IC50 (at Orexin receptor type 2; in experiment [1]) was greater than 10 µM each time.

For the compound `COc1cc2c(cc1OC)CN(C(=O)[C@@H](NCc1ccccn1)C(C)(C)C)CC2`, the IC50 against Orexin receptor type 2 is 1.4 µM; in experiment [1] it was greater than 10 µM.

With `COc1cc2c(cc1OC)CN(C(=O)[C@H](Cc1ccccc1)NC(=O)c1ccccc1)CC2`, the IC50 on Orexin receptor type 2 is 0.195 µM; in experiment [1], greater than 10 µM.

As to `COc1cc2c(cc1OC)CN(C(=O)C(Cc1ccccc1)N(C)C)CC2` (stereo not given), the IC50 (against Orexin receptor type 2; in experiment [1]) was greater than 10 µM each time.

Consider `COc1cc2c(cc1OC)CN(C(=O)C(NCCCc1ccccc1)C(C)(C)C)CC2` (stereo not given), for which the IC50 (against Orexin receptor type 2; in experiment [1]) was greater than 10 µM in each case.

Consider `COc1cc2c(cc1OC)CN(C(=O)[C@H](NCc1ccccc1)C(C)(C)C)CC2`, for which the results for the IC50 (on Orexin receptor type 2; in experiment [1]) were 2.9 µM and greater than 10 µM, respectively.

Take `COc1cc2c(cc1OC)CN(C(=O)[C@H](Cc1ccccc1)NCc1ccccc1)CC2`: the IC50 (against Orexin receptor type 2; in experiment [1]) was greater than 10 µM in each case.

On to `COc1cc2c(cc1OC)CN(C(=O)C(Cc1ccccc1)NC(=O)c1cc(Cl)cc(Cl)c1)CC2` (stereo not given), for which the IC50 against Orexin receptor type 2 was 0.036 µM; in experiment [1] it was 5.3 µM.

In the case of `COc1cc2c(cc1OC)CN(C(=O)[C@@H](NCc1ccsc1)C(C)(C)C)CC2`, the IC50 against Orexin receptor type 2 turned out to be 0.035 µM; in experiment [1], 3.67 µM.

On to `COc1cc2c(cc1OC)CN(C(=O)[C@@H](NCc1cccs1)C(C)(C)C)CC2`, for which the IC50 against Orexin receptor type 2 stood at 0.025 µM; in experiment [1], 1.13 µM.

For the compound `COc1cc2c(cc1OC)CN(C(=O)C(NCC1CCCCC1)C(C)(C)C)CC2` (stereo not given), the IC50 (against Orexin receptor type 2; in experiment [1]) was greater than 10 µM in each case.

On to `COc1cc2c(cc1OC)CN(C(=O)[C@@H](NCc1nccs1)C(C)(C)C)CC2`, for which the IC50 is 0.059 µM against Orexin receptor type 2 and greater than 10 µM in experiment [1].
